From ChEMBL document CHEMBL5346870, “Discovery of novel 5-methoxybenzothiophene hydrazides as metabolically stable Clk1 inhibitors with high potency and unprecedented Clk1 isoenzyme selectivity” (Eur J Med Chem, 2023)

Legend:
[1] = molecular target: T1, Dual specificity protein kinase CLK1 (Homo sapiens, UniProt P49759); details: dose 100.0 nM, time 15.0 min
Target sequence in this assay (P49759 whole entry, looked up): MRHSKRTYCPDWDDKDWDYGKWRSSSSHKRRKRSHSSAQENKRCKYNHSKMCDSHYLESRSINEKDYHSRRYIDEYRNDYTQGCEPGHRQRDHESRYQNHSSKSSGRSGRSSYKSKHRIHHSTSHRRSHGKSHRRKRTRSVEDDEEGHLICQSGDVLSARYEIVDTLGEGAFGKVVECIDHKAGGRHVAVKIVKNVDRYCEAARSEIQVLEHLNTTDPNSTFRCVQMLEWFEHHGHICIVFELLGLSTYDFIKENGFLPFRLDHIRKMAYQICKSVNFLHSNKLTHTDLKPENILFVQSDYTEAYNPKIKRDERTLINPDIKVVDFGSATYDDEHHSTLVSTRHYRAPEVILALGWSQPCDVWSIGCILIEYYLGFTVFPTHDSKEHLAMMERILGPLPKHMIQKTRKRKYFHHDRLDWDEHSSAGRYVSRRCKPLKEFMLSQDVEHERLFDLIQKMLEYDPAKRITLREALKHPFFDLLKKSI

[2] = molecular target: Dual specificity protein kinase CLK4 (Homo sapiens, UniProt Q9HAZ1); experiment: Inhibition of CLK4 (unknown origin) in presence of ATP
[3] = Metabolic stability in pooled human liver S9 fraction assessed as half life at 0.3 uM incubated for 120 mins in presence of NADPH regenerating system by LC-MS/MS analysis; format: ADME, subcellular
[4] = molecular target: Dual specificity tyrosine-phosphorylation-regulated kinase 1A (Homo sapiens, UniProt Q13627); experiment: Inhibition of DYRK1A (unknown origin) in presence of ATP
NHDF = experiment: Cytotoxicity against HDF cells assessed as inhibition of cell growth at 15 uM incubated for 2 days by WST-1 analysis; format: toxicity, cell-based; details: human, 48 h, time 2 day
T-24 [5] = experiment: Antiproliferative activity against human T24 cells assessed as cell growth inhibition incubated for 3 days by MTT assay; format: functional; details: T-24, 72 h, time 3 day
[6] = Selectivity index, ratio of inhibition of DYRK1A (unknown origin) to inhibition of CLK1 (unknown origin)
[7] = Metabolic stability in human liver microsomes assessed as half life; format: ADME, Microsome
[8] = molecular target: T1, Dual specificity protein kinase CLK1; experiment: Inhibition of human CLK1 using GRSRSRSRSRSRSRS as substrate incubated for 15 mins in presence of ATP by gamma32P-ATP based analysis
Target sequence in this assay (P49759 whole entry): as the sequence (P49759 whole entry, looked up) above

[9] = Cytotoxicity against HDF cells assessed as cell growth inhibition at 15 uM incubated for 2 days by WST-1 analysis relative to control; format: toxicity, cell-based; details: human, HDF cells (NHDF, normal human dermal fibroblasts), time 2 day, read-out: GI
T-24 [10] = experiment: Antiproliferative activity against human T24 cells assessed as cell growth inhibition; format: functional
[11] = Selectivity index, ratio of IC50 for inhibition of CLK2 (unknown origin) to IC50 for inhibition of CLK1 (unknown origin)

Chain of Dual specificity protein kinase CLK4 (Q9HAZ1 whole entry): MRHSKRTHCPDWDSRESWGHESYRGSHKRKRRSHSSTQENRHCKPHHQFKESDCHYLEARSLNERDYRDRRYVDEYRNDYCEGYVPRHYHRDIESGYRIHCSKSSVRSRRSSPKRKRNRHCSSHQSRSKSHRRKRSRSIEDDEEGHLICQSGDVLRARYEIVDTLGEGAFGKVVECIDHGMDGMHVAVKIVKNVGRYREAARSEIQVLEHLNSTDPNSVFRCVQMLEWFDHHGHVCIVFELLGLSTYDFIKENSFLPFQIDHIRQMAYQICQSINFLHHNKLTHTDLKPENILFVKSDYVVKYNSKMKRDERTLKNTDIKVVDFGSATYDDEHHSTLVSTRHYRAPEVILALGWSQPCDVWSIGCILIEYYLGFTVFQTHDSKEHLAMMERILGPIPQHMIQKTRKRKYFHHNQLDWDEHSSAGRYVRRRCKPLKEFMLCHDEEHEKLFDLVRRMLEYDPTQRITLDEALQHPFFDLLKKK

With `COc1ccc2sc(C(=O)NNc3ccccc3)cc2c1` as the compound, how does the inhibition [1] read?
The inhibition was 38.1%.

With `COc1ccc2sc(C(=O)NNc3ccccc3Cl)cc2c1` as the compound, how does the inhibition [1] read?
Its inhibition is 29.5%.

With `COc1ccc2sc(C(=O)N(C)N(C)c3cccc([N+](=O)[O-])c3)cc2c1` as the compound, how does the inhibition [1] read?
The inhibition was 47.8%.

Which results are given for `COc1ccc2sc(C(=O)NNc3cc(F)cc(F)c3)cc2c1`?
IC50 [2]: 21.1 nM; half-life at 0.3 µM [3]: 56.9 min; IC50 [4]: 201 nM; Activity (NHDF): Non-Toxic; GI50 (T-24 [5]): 8900 nM

For `COc1ccc2sc(C(=O)NNc3c(Cl)cccc3Cl)cc2c1`, which inhibition [1] is on record?
The inhibition was 0%.

For `COc1ccc2sc(C(=O)NC(=O)c3cc(Cl)ccc3OC)cc2c1`, which Selectivity Index [6] is on record?
Its Selectivity Index is 60.

What about the half-life [7] of the same compound?
Its half-life is 10 min.

What about the half-life at 0.3 µM [3] of the same compound?
The half-life at 0.3 µM was 10.2 min.

For `C[C@@H](c1ccc(F)cc1)n1nnc2cnc3ccc(-c4ccc5ocnc5c4)cc3c21`, which Selectivity Index [6] is on record?
Its Selectivity Index is 69.

For `COc1ccc2sc(C(=O)NNc3cc(C(F)(F)F)cc(C(F)(F)F)c3)cc2c1`, which inhibition [1] is on record?
Its inhibition is 22.3%.

Which IC50 [8] does the source give for `COc1ccc2sc(C(=O)NNc3cccc(Br)c3)cc2c1` here?
The IC50 was 37.7 nM.

And the inhibition [1]?
Its inhibition is 84.6%.

With `COc1ccc2sc(C(=O)NNc3ccc(F)cc3F)cc2c1` as the compound, how does the inhibition [1] read?
The inhibition was 4.1%.

Which inhibition [1] does the source give for `COc1ccc2sc(C(=O)NNc3ccc(C)c(Cl)c3)cc2c1` here?
The inhibition was 25.9%.

Which results are given for `COc1ccc2sc(C(=O)N(C)Nc3cccc(Cl)c3)cc2c1`?
Activity (NHDF): Non-Toxic; GI50 (T-24 [5]): > 15000 nM

Which inhibition [1] does the source give for `COc1ccc2sc(C(=O)NNc3ccccn3)cc2c1` here?
Its inhibition is 28.9%.

With `COc1ccc2sc(C(=O)NNc3ccc(C)cc3C)cc2c1` as the compound, how does the inhibition [1] read?
Its inhibition is 0%.

For `COc1ccc2sc(C(=O)N(C)N(C)c3cccc(N)c3)cc2c1`, which IC50 [8] is on record?
Its IC50 is 97.4 nM.

What about the inhibition [1] of the same compound?
The inhibition was 51.2%.

For `COc1ccc2sc(C(=O)N(C)Cc3cc(F)cc(F)c3)cc2c1`, which half-life [7] is on record?
Its half-life is 10 min.

And the half-life at 0.3 µM [3]?
The half-life at 0.3 µM was 9.9 min.

What about the inhibition at 48 h, 15 µM [9] of the same compound?
Its inhibition at 48 h, 15 µM is 9.16%.

What about the GI50 (T-24 [10]) of the same compound?
The GI50 was 430 nM.

What about the GI50 (T-24 [5]) of the same compound?
Its GI50 is 1780 nM.

What does the source list for `COc1ccc2sc(C(=O)NNc3ccc(C#N)cc3)cc2c1`?
IC50 [8]: > 100 nM; inhibition [1]: 18.4%; Activity (NHDF): Non-Toxic; GI50 (T-24 [5]): > 15000 nM

With `COc1ccc2sc(C(=O)NNc3ccc([N+](=O)[O-])cc3)cc2c1` as the compound, how does the inhibition [1] read?
Its inhibition is 7.2%.

With `COc1ccc2sc(C(=O)NNc3ccc(F)c(Cl)c3)cc2c1` as the compound, how does the inhibition [1] read?
Its inhibition is 27.9%.

Which results are given for `COc1ccc2sc(C(=O)N(C)N(C)c3cc(F)cc(F)c3)cc2c1`?
IC50 [8]: 24.5 nM; inhibition at 48 h, 15 µM [9]: 20.8%; inhibition [1]: 85%; GI50 (T-24 [5]): > 15000 nM

Which inhibition [1] does the source give for `COc1ccc2sc(C(=O)NNc3cccc(C)c3)cc2c1` here?
Its inhibition is 29.9%.

For `Cn1cc(-c2ccc3occ(-c4cccc(-c5ccncc5)c4)c3n2)cn1`, which Selectivity Index [6] is on record?
Its Selectivity Index is 26.6.

And the Ratio IC50 [11]?
Its Ratio IC50 is 2.5.

For `COc1ccc2sc(C(=O)NNc3cc(Cl)cc(Cl)c3)cc2c1`, which IC50 [2] is on record?
The IC50 was 13.4 nM.

What about the half-life at 0.3 µM [3] of the same compound?
Its half-life at 0.3 µM is 385 min.

What about the IC50 [4] of the same compound?
Its IC50 is 191 nM.

And the GI50 (T-24 [5])?
Its GI50 is 3400 nM.

Which IC50 [8] does the source give for `COc1ccc2sc(C(=O)N(C)N(C)c3cccc(Br)c3)cc2c1` here?
Its IC50 is 73.8 nM.

And the inhibition [1]?
The inhibition was 68.1%.

Which results are given for `COc1cccc(NNC(=O)c2cc3cc(OC)ccc3s2)c1`?
IC50 [8]: 3.7 nM; inhibition [1]: 86.8%; Activity (NHDF): Non-Toxic; GI50 (T-24 [5]): > 15000 nM

For `COc1ccc2sc(C(=O)N(C)N(C)c3cccc(Br)n3)cc2c1`, which IC50 [8] is on record?
Its IC50 is 12.9 nM.

And the inhibition [1]?
Its inhibition is 77.2%.

With `COc1ccc2sc(C(=O)NNc3ccccc3Br)cc2c1` as the compound, how does the inhibition [1] read?
The inhibition was 6.2%.

With `COc1ccc2sc(C(=O)NNc3ccc(Cl)cc3)cc2c1` as the compound, how does the inhibition [1] read?
The inhibition was 12.8%.

Which Ratio IC50 [11] does the source give for `CC(C)(C)c1ccc(C(=O)Nc2cn3cc(-c4cn[nH]c4)ccc3n2)cn1` here?
The Ratio IC50 was 2.2.

Which IC50 [8] does the source give for `COc1ccc2sc(C(=O)N(C)N(C)c3cccc(C#N)c3)cc2c1` here?
Its IC50 is 32.1 nM.

What about the inhibition [1] of the same compound?
Its inhibition is 62.7%.

Which inhibition [1] does the source give for `COc1ccc2sc(C(=O)NNc3nc(OC)ncc3F)cc2c1` here?
The inhibition was 0%.

For `COc1ccc2sc(C(=O)NNc3ccc(I)cc3)cc2c1`, which inhibition [1] is on record?
The inhibition was 16.9%.

For `COc1ccc2sc(C(=O)NNc3ccc(Cl)cc3Cl)cc2c1`, which inhibition [1] is on record?
Its inhibition is 30.4%.

Which inhibition [1] does the source give for `COc1ccc2sc(C(=O)NNc3ccc(C(C)C)cc3)cc2c1` here?
Its inhibition is 3.8%.

Which results are given for `COc1ccc2sc(C(=O)NNc3cccc(C#N)c3)cc2c1`?
IC50 [8]: 5.4 nM; inhibition [1]: 73.1%; Activity (NHDF): Non-Toxic; GI50 (T-24 [5]): 10000 nM

With `COc1ccc2sc(C(=O)NNc3ccc(F)c(F)c3)cc2c1` as the compound, how does the inhibition [1] read?
Its inhibition is 17.7%.

With `CNc1ncc2cc3cnccc3c([N+](=O)[O-])c2n1` as the compound, how does the Selectivity Index [6] read?
The Selectivity Index was 34.

With `COc1ccc2sc(C(=O)N(C)N(C)c3cc(Cl)cc(Cl)c3)cc2c1` as the compound, how does the IC50 [8] read?
Its IC50 is 63.5 nM.

And the inhibition [1]?
The inhibition was 66.3%.

Which results are given for `COc1ccc2sc(C(=O)NNc3cccc([N+](=O)[O-])c3)cc2c1`?
IC50 [8]: 85.6 nM; inhibition [1]: 68.4%

With `COc1ccc2sc(C(=O)NNc3cccc(Br)n3)cc2c1` as the compound, how does the GI50 (T-24 [5]) read?
Its GI50 is 11400 nM.

Which results are given for `COc1ccc2sc(C(=O)N(C)Cc3cccc(F)c3)cc2c1`?
Selectivity Index [6]: 48.6; half-life [7]: 10 min; half-life at 0.3 µM [3]: 17.2 min

Which inhibition [1] does the source give for `COc1ccc2sc(C(=O)NNc3ccc(C(F)(F)F)cc3)cc2c1` here?
Its inhibition is 0%.

With `COc1ccc2sc(C(=O)NNc3ccc(Br)cc3)cc2c1` as the compound, how does the inhibition [1] read?
Its inhibition is 21.3%.

Which inhibition [1] does the source give for `COc1ccc2sc(C(=O)NNc3ncccc3Cl)cc2c1` here?
Its inhibition is 0%.

What does the source list for `COc1ccc2sc(C(=O)NNc3cccc(F)c3)cc2c1`?
IC50 [8]: 66.5 nM; inhibition [1]: 70.5%

For `COc1ccc2sc(C(=O)NNc3ccccc3F)cc2c1`, which inhibition [1] is on record?
The inhibition was 18.6%.

For `COc1ccc2sc(C(=O)NNc3cccc(N)c3)cc2c1`, which inhibition [1] is on record?
The inhibition was 49%.

Which inhibition [1] does the source give for `COc1ccc2sc(C(=O)NNc3ccc(F)cc3)cc2c1` here?
The inhibition was 5%.

With `COc1ccc2sc(C(=O)NNc3cccc(C(F)(F)F)c3)cc2c1` as the compound, how does the IC50 [8] read?
The IC50 was 73 nM.

What about the inhibition [1] of the same compound?
The inhibition was 63%.
